According to patent publication US8703736B2, “Therapeutic target for pancreatic cancer cells” (The Translational Genomics Research Institute, priority 2011, dated 2014):
Where two headings read alike, the source gives them in different places.

What was measured:
PDA cell proliferation = test: Inhibition of PDA cell proliferation (summary over cell lines); format: cell-based; conditions: Homo sapiens; range over cell lines of TABLE 2; 72 hours; read-out: IC50s range, inhibition of PDA cell proliferation
Procedure: (§1) Efficacy of ROCK inhibition evaluated by drug dose-response curves: The small molecule ROCK1 inhibitors, fasudil and Y27632, were analyzed for their effects in pancreatic cancer cell lines. Drug dose-response curves were created to assess the efficacy of ROCK inhibition at 72 hours of drug exposure. FIG. 5A presents the drug dose-response curves for fasudil exposure in MiaPaca, Su8686, Panc-1 and CW1 cell line cells. FIG. 5B presents the drug dose-response curves for Y-27632 exposure in the same above mentioned cell lines. Gemcitabine, a nucleoside analog, replaces one of the building blocks, cytidine, during DNA replication and thus arrests tumor growth, which leads to cell death. Gemcitabine is shown for reference as illustrated in FIG. 5C.

Panc-1 = test: Drug dose-response curves, cell proliferation, Panc-1; format: cell-based; conditions: Homo sapiens, read-out: cell proliferation, IC50 values
Procedure: as §1

CW1 = test: Drug dose-response curves, cell proliferation, CW1; format: cell-based; conditions: Homo sapiens, read-out: ROCK1 inhibition, IC50 values
Procedure: as §1

Su8686 = test: Drug dose-response curves, cell proliferation, Su8686; format: cell-based; conditions: Homo sapiens
Procedure: as §1

MiaPaca2 = test: Drug dose-response curves, cell proliferation, MiaPaca2; format: cell-based; conditions: Homo sapiens, read-out: ROCK1 inhibition, IC50 values
Procedure: as §1

[1] = test system: Collagen 1 mRNA in cultured human stellate cells; test: Quantitative PCR analysis of Collagen 1 mRNA levels (FIG. 11); format: cell-based; conditions: highest concentration of fasudil (100 μm)
Procedure: Fasudil inhibits collagen expression in cultured human stellate cells: The analysis of collagen expression in cultured human stellate cells exposed to Fasudil was carried out using quantitative PCR analysis of Collagen 1 mRNA levels.

Panc-1 cells [2] = test: Modified Boyden Chamber Assay, cell migration; format: cell-based, human; conditions: at both 500 μM and 20 μM
Panc-1 cells [3] = test: SRB (Sulphorhodamine) cell viability assay with fasudil; format: cell-based, human
Procedure: To further study the effects of fasudil at these concentrations on growth, an SRB (Sulphorhodamine) cell viability assay was performed. […] In both FIGS. 6A and 6B, “UT” stands for untreated; and “SFM” stands for serum-free media.

[4] = test system: co-culture of human pancreatic cancer-derived fibroblasts and SU8686 cells; test: Co-culture stained for cytokeratin and αSMA (FIG. 12); format: cell-based; conditions: 72 hours
Source text: Fasudil inhibits stellate cell proliferation and function: The effects of fasudil on the proliferation and expansion of the stromal compartment in a co-culture of human pancreatic cancer-derived fibroblasts and SU8686 cells were compared. […] Subsequently, cells were fixed and stained for the epithelial cell marker, cytokeratin, in green, and αSMA, in red.

[5] = test system: co-culture of human pancreatic cancer-derived myofibroblasts and SU8686 cells; test: Co-culture stained for aSMA and collagen 1 (FIG. 7); format: cell-based; conditions: 72 hours
[6] = test system: collagen 1 in CW1 myofibroblasts and SU8686 cells; test: Collagen 1 expression in single and co-cultures, dot blot (FIG. 8); format: cell-based, human
Procedure: Fasudil reduces collagen synthesis in co-cultured pancreatic cells: The effects of fasudil on the expression of collagen 1 in single and co-cultures of human myofibroblasts and SU8686 cells were examined. These cells were seeded and then treated with fasudil for 72 hours at the concentrations indicated. Treatment conditions are shown at top of the figure panel, and standard curve concentrations are shown below the figure panel (FIG. 8A). Calibrated collagen concentrations were shown in FIG. 8B (20 μg total protein loaded per sample). […] Fasudil inhibits collagen expression in cultured human stellate cells: The analysis of collagen expression in cultured human stellate cells exposed to Fasudil was carried out using quantitative PCR analysis of Collagen 1 mRNA levels.

[7] = Panc-1 cell line, 72 hours of drug exposure, read-out: ROCK1 inhibition, IC50 values
[8] = CW1 cell line, 72 hours of drug exposure
[9] = SU.86.86, Su8686 cell line, 72 hours of drug exposure, read-out: ROCK1 inhibition, IC50 values
[10] = MIA PaCa-2, MiaPaca2 cell line, 72 hours of drug exposure

Structure (SMILES) | IC50 (PDA cell proliferation) [µM] | IC50 (Panc-1; PANC-1, 72 h) [µM] | IC50 (CW1; 72 h) [µM] | IC50 (Su8686; SU.86.86, 72 h) [µM] | IC50 (MiaPaca2; MIA PaCa-2, 72 h) [µM] | IC50 (Panc-1; [7]) [µM] | IC50 (CW1; [8]) [µM] | IC50 (Su8686; [9]) [µM] | IC50 (MiaPaca2; [10]) [µM] | collagen expression (Collagen 1 mRNA) [1] | migrating cells relative to serum (chemoattractant) containing media control (Panc-1 cells [2]) | cytotoxicity (Panc-1 cells [3]; 20 μM) | cell survival (Panc-1 cells [3]; 500 μM, 24 hours) [%] | inhibition of aSMA expressing cells (stellate cells) ([4]; 50 μM, 25 μM, and 12 μM) | cell proliferation of both cancer cells and stellate cells relative to untreated ([4]; 100 μM) | inhibition of aSMA and collagen 1 expressing myofibroblasts ([5]; 50 μM, 25 μM, and 12 μM) | cell proliferation of both cancer cells and myofibroblasts relative to untreated ([5]; 100 μM) | collagen synthesis relative to the untreated sample ([6]; 100 μM, 50 μM, and 25 μM, 72 hours) | collagen expression, dot blot on protein lysates ([6]; monocultured stellate cells (CW1) and co-cultured tumor/stellate cells (CW1/SU8686), 6-100 μm)
CC(N)C1CCC(C(=O)Nc2ccncc2)CC1 (stereo not drawn) [Y27632, 4-(1-aminoethyl)-N-pyridin-4-yl-cyclohexane-1-carboxamide] | 6 to 71 | > 100 | 6.4 | 27.9 | 6.8 |  |  |  |  |  |  |  |  |  |  |  |  |  | 
Nc1ccn([C@@H]2O[C@H](CO)[C@@H](O)C2(F)F)c(=O)n1 [Gemcitabine] |  |  |  |  |  | > 100 | > 100 | 0.017 | 0.056 |  |  |  |  |  |  |  |  |  | 
O=S(=O)(c1cccc2cnccc12)N1CCCNCC1 [Fasudil, 5-(1,4-diazepan-1-ylsulfonyl)isoquinoline] | 6 to 71 |  |  |  |  | > 100 | 66 | 71.2 | 55 | three-fold decrease in collagen expression | significant reduction in migrating cells | no significant cytotoxicity | 50.3 | selectively inhibited | significant reduction in cell proliferation | selectively inhibited | significant reduction in cell proliferation | significant reduction in collagen synthesis | Decreased collagen expression
